These results are taken from article PMC13168289, “Potent acridone antimalarial against all three life stages of Plasmodium” (Nature Communications, 2026).

Each structure is given as a SMILES string. Several values for one entry are separate records, joined by “and”; a condition that tells them apart may be missing. Equal values may be shown once. Read-outs that look alike come from different tables or passages of the source.

Data set [1] concerns blood-stage P. yoelii. The data set can be described thus: 4-day suppression murine model, oral. In kind it is in vivo, P. yoelii in CF1 mice. The source says: Animals were housed at the VAPORHCS in Thoren Maxi-Miser microisolator cages (78 sq. in. floor space) with a maximum density of five females or four males per cage. Cages were maintained on a 12-h light/dark cycle and provided with autoclaved nesting materials (nestlets) for environmental enrichment. All mice had ad libitum access to food and water. Four- to five-week-old female and male outbred CF1 mice (Charles River Laboratories, Raleigh, NC, USA) were randomly assigned to treatment and control groups using a simple randomization procedure (e.g., computer-generated random numbers) to ensure balanced distribution of baseline body weights and starting parasitemia levels across all cohorts. Groups of four mice (n = 4, mean body weight of each group was ~30 g) were infected intravenously with 3.5 × 10^4 P. yoelii (Kenya strain, MRA-428) from a donor animal. Drug administration commenced the day after the animals were inoculated (Day 1). The test drug or the drug combination was dissolved in PEG-400 and administered by oral gavage once daily for 4 successive days in the 4-day suppression model, but only once on Day 1 in the single-dose cure model. Blood was collected via the tail vein with the aid of a syringe needle on Day 5 and then at weekly intervals through Day 28. Blood films were Giemsa-stained and examined microscopically to determine the level of parasitemia. All mice were observed daily to assess clinical signs. Animals with observable parasitemia following the experiments were euthanized; animals cleared of parasitemia from their bloodstream were observed daily with assessment of parasitemia performed weekly until Day 28, at which point, the animal(s) were scored as cured of the infection and then humanely euthanized. All treated mice with a negative smear on Day 28 were considered cured (100% protection). […]

Data set [2] deals with fresh P. falciparum isolates. The data set can be described thus: Ex vivo 72-h growth inhibition assay with SYBR Green detection. In kind it is cell-based, Plasmodium falciparum. As for the experimental part:
Isolates were collected from patients with uncomplicated falciparum malaria in Bobo-Dioulasso, Burkina Faso and Tororo, Uganda. For parasite culture, parasitemia was identified with Giemsa-stained thin films using a light microscope. […] Isolates were stored at 4 °C and assayed within 24 h of collection. […] Study compounds were dissolved in DMSO as 10 mM stocks and stored at -20 °C. Drugs were serially diluted, including drug-free and parasite-free control wells, with concentrations optimized to capture full dose-response curves. Cultures were diluted with uninfected O^+ erythrocytes to achieve 0.2% parasitemia and 2% hematocrit. After 72 h, wells were resuspended, and culture from each well was transferred to 96-well plates containing SYBR Green lysis buffer and mixed. Plates were incubated for 1 h in the dark at room temperature, and fluorescence was measured with a plate reader (485 nm excitation and 530 nm emission).

Data set [3] concerns P. falciparum NF54 oocyst development in mosquitoes. Briefly: standard membrane feeding assay (SMFA). In kind it is in vivo, P. falciparum in Anopheles stephensi. As to conditions: drug in blood meal. As for the experimental part: The SMFA assay was performed using P. falciparum NF54 gametocytes produced in vitro[35]. P. falciparum NF54 gametocytes were grown in human blood cultured in RPMI 1640 GlutaMax medium (Gibco) supplemented with 25 mM HEPES, hypoxanthine, and human serum. De-identified human blood and serum were obtained from the Australian Red Cross Blood Service. Mature (stage V) gametocytes were quantified in Giemsa-stained blood smears. Immediately prior to infection, a feeding mixture comprising 45% human serum and 55% human blood containing 0.15% stage V gametocytes and the desired concentration of drug or vehicle control, was prepared and maintained at 37 °C. Adult female Anopheles stephensi (MR4) mosquitoes reared under the standard insectary conditions[79] were placed in mesh-topped cups and allowed to feed on the gametocyte mixtures in prewarmed glass feeders wrapped with parafilm. […] Mosquito midguts were dissected 7 days after infection, stained in 0.2% mercurochrome, and oocysts were counted using a light microscope.

In data set [4] the test system is luciferase-expressing P. berghei sporozoites. Briefly: liver-stage prophylaxis murine model with IVIS bioluminescence imaging. In kind it is in vivo, P. berghei in Albino C57BL/6 mice. Conditions: Days -1, 0, 1. An excerpt: Four- to six-week-old female inbred Albino C57BL/6 mice (18–22 g, Jackson Laboratories, Bar Harbor, ME, USA) were utilized. Animals were assigned unique study numbers via ear tags and cage cards and were randomly assigned to treatment or control groups (n = 5 per group) using a weigh-stratified randomization procedure. All animals were quarantined and acclimatized for 7 days prior to study initiation and were housed in a 12:12 light/dark cycle with food and water provided ad libitum. Mice were infected intravenously with 10^4 luciferase-expressing P. berghei sporozoites (ANKA strain) via tail vein injection on Day 0. Drugs were dissolved in PEG-400 and administered orally once per day on Day -1, Day 0, and Day 1. […] Infection reduction was assessed by comparing the bioluminescence signals emitted by treated groups with signals emitted by the vehicle control-treated group at that time point. Later blood-stage parasitemia was determined via flow cytometry. […] Long-term blood-stage efficacy was evaluated starting on Day 6 post-infection and continued for up to 31 days using flow cytometry.
In vivo antimalarial efficacy studies were performed as described above.

Data set [5] is described as follows: maximum tolerated dose (MTD) study, single oral dose. Conditions: oral gavage, male and female rats. The class given is in vivo, Sprague Dawley rats. As for the experimental part: In vivo toxicology and TK studies in rats were performed at SRI International, using the well-established methods[83]–[85]. Rats were housed in microisolator cages with hardwood chip bedding (Sani-Chips; Envigo Teklad) and maintained on a 12 h light/dark cycle. Environmental conditions were controlled at 20–26 °C (68–79 °F) with 30–70% relative humidity. […] Male and female Sprague Dawley outbred rats were randomly assigned to treatment and control groups using a simple randomization procedure to ensure a balanced distribution of baseline weights across all cohorts. […] For TK studies, blood was collected from animals at 6 time points post dose on Day 1 (0.5, 1, 2, 4, 8, and 24 h) and on Day 7 (0.5, 2, 8, 24, 48, and 96 h). Drug levels were determined in collected plasma samples using bioanalytical method developed at SRI. The plasma drug level data were analyzed using Phoenix WinNonlin (version 8.3) software to perform noncompartmental data analysis.

Data set [6] deals with P. cynomolgi hypnozoites and schizonts. On the set-up: method as in PMID: 21483865. Conditions: primary hepatocyte P. cynomolgi assays; ref PMID: 21483865; read-out: in vitro liver-stage IC50; cited from earlier work.
Details of data set [7]: method as in reviewer #3 remark. As to conditions: in humans; ref reviewer #3 remark; cited from earlier work.
Setting [8] is: as stated in response to reviewers.

For orientation: ED50 means the midpoint of the dose-response relation. Broadly, the IC50 is the concentration that inhibits the measured activity by half. Turning to `O=c1c2ccc(Oc3ccc(OC(F)(F)F)cc3)cc2[nH]c2cc(Cl)cc(F)c12` [T111], the median effective dose (ED50) turned out to be 0.27 mg/kg/day in data set [1] (setting [8]); 0.35 mg/kg/day in data set [1] (female mice, oral); 0.33 mg/kg/day in data set [1] (male mice, oral). The ED90 in data set [1] (setting [8]) worked out at 0.39 mg/kg/day; in data set [1] (female mice, oral), 0.50 mg/kg/day; in data set [1] (male mice, oral) it was 0.46 mg/kg/day. Moreover, in data set [1] (four consecutive days, oral), the curative dose is given as 10 mg/kg/day. Moreover, the IC50 in data set [2] (Burkina Faso isolates, n = 78, read-out: IC50 range) was 0.0013 to 0.49 nM; in data set [2] (Burkina Faso isolates, n = 78, read-out: median IC50), 0.062 nM; in data set [2] (Uganda isolates, n = 81, read-out: IC50 range), 0.0038 to 0.66 nM; in data set [2] (Uganda isolates, n = 81, read-out: median IC50), 0.049 nM. In addition, in data set [3], the “concentration that eliminated oocyst formation” value is 4.0 ng/mL and 9.5 nM. Also, the “protection from liver-stage infection” value in data set [4] (1 mg/kg/day oral) is given as “did not clear liver-stage infection”; in data set [4] (4 mg/kg/day oral), “did not clear liver-stage infection”; in data set [4] (10 mg/kg/day oral), “full protection”. Also, the “single dose MTD” value in data set [5] is given as “greater than 400 mg/kg”.
Take `O=C1C(O)=C([C@H]2CC[C@H](c3ccc(Cl)cc3)CC2)C(=O)c2ccccc21` [ATV, atovaquone]: in data set [6], the IC50 is around 2000 nM. The T1/2 in data set [7] is 120 to 140 h.
